We go through 5 compounds from patent publication US20180016259A1, “QUINAZOLINE INHIBITORS OF ACTIVATING MUTANT FORMS OF EPIDERMAL GROWTH FACTOR RECEPTOR” (AstraZeneca AB, priority 2013, published 2018).

Data set [1] is described as follows: Brain blood barrier penetration assay (short oral absorption model with in vitro blood and brain binding). The following applies: male Han Wistar rats, oral 2 mg/kg in 1% methylcellulose; for Kp uu: rat. It counts as in vivo. The text has this:
Both Kp,uu brain and Kp,uu CSF should be the main parameters measured and optimized in CNS drug discovery (Di L et al., Journal of Medicinal Chemistry [2013], 56: 2-12). Kp,uu brain, the relationship between concentrations of unbound drug in brain and in blood, predicts drug action on metastatic tumors in brain Leptomeningeal metastasis (LM) results from metastatic spread of cancer to the leptomeninges, giving rise to central nervous system dysfunction. Kp,uu CSF represents the distribution of drug in CSF as compared to that in blood, which drives drug response during leptomeningeal metastasis treatment.
In vitro blood and brain binding assay was carried out on a HT-Dialysis plate (Gales Ferry, Conn.) with semi-permeable membrane. Diluted blood (1:1 with DPBS pH7.4) and brain homogenate (1:3 with DPBS pH7.4) were spiked with 5 μM test compound (in triplicate) and dialyzed against equal volume of 150 μL 100 mM PBS buffer (pH7.4) at 37° C. for 4 hours in a slowly rotated plate. At the end of incubation, a 50 μL aliquot from the receiver side and a […] from the donor chamber were taken. The 5 μL sample was further diluted with 45 μL of blank blood or brain homogenate. Paired samples were matrix-matched with either buffer or blank blood/brain homogenate and mixed for 2 min, and then precipitated with 150 μL cold acetonitrile with 100 ng/mL tolbutamide as internal standard. After centrifuging at 4000 rpm for 20 min, supernatant was diluted with 0.1% formic acid aqueous solution and analyzed for LC/MS/MS (API 4000, Applied Biosystems, Foster City). […]. D is dilution factor.
A Short oral absorption (SOA) model is an in-vivo screening model to identify brain penetration of a compound. Six male Han Wistar rats purchased from Beijing Vital River were orally dosed with the compound at 2 mg/kg in 1% methylcellulose. At 0.25, 0.5, 1, 2, 4 and 7 hour post-dose, cerebral spinal fluid (CSF) was collected from cisterna magna, and blood samples (>60 μL/time point/each site) were collected via cardiac puncture, into separate EDTA […] tubes, and then immediately diluted with 3-fold volume of water. Brain tissue was harvested and homogenized in 3× volume of 100 mM phosphate buffered saline (pH7.4). All samples were stored at ˜−70° C. prior to LC/MS/MS analysis.
Standards were prepared by spiking blank blood, brain homogenate and artificial CSF covering 0.2 to 500 ng/mL. Homogenized brain tissue along with blood samples were precipitated by adding 3-fold volume of cold acetonitrile containing internal standard (40 ng/mL Dexamethasone and 40 ng/mL Diclofenac), and 10 μL of CSF samples were precipitated with 100 μL of cold acetonitrile containing internal standard. After 2 min vortex and 5 min centrifugation at 14,000 rpm, supernatant was analyzed by LC/MS/MS (API 4000, Applied Biosystems, Foster City). Two sets of standard curves were run at the beginning and end of each batch from blood sample analysis. For brain and CSF samples, one standard curve was analyzed along with test samples.
Total brain levels, expressed as brain/blood ratio (Kp,brain) were measured by AUCbrain/AUCblood in rodents after oral administration. Free fraction of test compound in biological matrix was determined by in vitro blood and brain binding assay. Kp,uu brain and Kp,uu CSF were calculated by the following equation: Kp,uu brain=AUCbrain/AUCblood×(fu,brain/fu.blood) and Kp,uu CSF=AUCCSF/(AUCblood×fu.blood).

The conditions of data set [2]: literature reports; cited from earlier work.

Like-named read-outs stand apart in the source and are kept apart here.

Consider `COc1cc2ncnc(Nc3cccc(Cl)c3F)c2cc1OC(=O)N1CCN(C)C[C@H]1C` [Example 1, 4-[(3-Chloro-2-fluorophenyl)amino]-7-methoxyquinazolin-6-yl (2R)-2,4-dimethylpiperazine-1-carboxylate], for which the Kp uu in data set [1] (male, Han Wistar, in vivo, po, 2 mg/kg, AUCCSF/(AUCblood x fu,blood), read-out: Kp, uu CSF) fell in the range of 1 to 1.3; in data set [1] (male, Han Wistar, in vivo, po, 2 mg/kg, AUCbrain/AUCblood x (fu,brain/fu,blood), read-out: Kp, uu brain), 0.8 to 1.3.

Turning to `CN(C)C/C=C/C(=O)Nc1cc2c(Nc3ccc(F)c(Cl)c3)ncnc2cc1O[C@H]1CCOC1` [afatinib], the “adverse effects, such as skin rash and diarrhoea, share of NSCLC patients treated” value in data set [2] is over 90%.

Regarding `CNC(=O)CN1CCC(Oc2cc3c(Nc4cccc(Cl)c4F)ncnc3cc2OC)CC1` [sapitinib], the “Kp, uu CSF” value in data set [1] (AUCCSF/(AUCblood x fu,blood)) was “Below quantification limit”. In addition, in data set [1] (AUCbrain/AUCblood x (fu,brain/fu,blood), read-out: Kp, uu brain), the Kp uu turned out to be 0.13.

`COc1cc2ncnc(Nc3ccc(F)c(Cl)c3)c2cc1NC(=O)/C=C/CN1CCCCC1` [dacomitinib]: the “adverse effects, such as skin rash and diarrhoea, share of NSCLC patients treated” value in data set [2] is over 90%.

As for `COc1cc2ncnc(Nc3cccc(Cl)c3F)c2cc1OC(=O)N1CCN(C)C[C@@H]1C` [Example 3, 4-[(3-Chloro-2-fluorophenyl)amino]-7-methoxyquinazolin-6-yl (2S)-2,4-dimethylpiperazine-1-carboxylate], in data set [1] (CSF / blood, AUCCSF/(AUCblood x fu,blood), read-out: Kp, uu CSF), the Kp uu is 2.6.
